Reference: patent publication EP0774455A1, “Excitatory amino acid receptor antagonists” (ELI LILLY AND COMPANY, priority 1995, dated 1997)

What was measured:
mouse [1] = assay: mouse elevated plus maze model; type: in vivo
mouse [2] = assay: mouse conditioned active avoidance response model; type: in vivo
Text: (Pfeiffer & Jenney, Ann. N.Y. Acad. Sci., 66:[…], 1957; Maffii, J. Pharm. Pharmacol., 11: 129-139, 1959; Cook & Weidley, Ann; N.Y. Acad. Sci., 66: […], 1957; Janke, Handbook of Experimental Pharmacology, Vol. 55/I, New York: Plenum Press, 1978).

[3] = tested on: metabotropic glutamate receptors; assay: selective displacement of 1S,3R-ACPD-sensitive [3H]glutamate binding to rat brain cell membranes (crude membranes of rat forebrain)
Method: The binding of [^3H]glutamate was conducted with crude membranes of rat forebrain as described by Schoepp and True. Schoepp and True, Neuroscience Lett., 145, 100-104 (1992) and Wright et al., J. Neurochemisty 63: 938-945 (1994).

Which anxiolytic effect (mouse [1]) does the source give for `Cc1cccc(C[C@@H]2C[C@H]3[C@H](C(=O)O)[C@H]3[C@]2(N)C(=O)O)c1` (racemic) [Example 4, 1SR,2SR,3SR,5RS,6SR-Amino-3-((3-methyl)benzyl)bicyclo[3.1.0]hexane-2,6-dicarboxylic acid] here?
The anxiolytic effect was “anxiolytic effect”.

Which neuroleptic properties (mouse [2]) does the source give for `N[C@@]1(C(=O)O)[C@H](Cc2ccc(F)c(F)c2F)C[C@H]2[C@H](C(=O)O)[C@H]21` (racemic) [Example 25, 1SR,2SR,3SR,5RS,6SR-2-Amino-3-((2,3,4-trifluoro)-benzyl)bicyclo[3.1.0]hexane-2,6-dicarboxylic acid] here?
The neuroleptic properties was “neuroleptic properties”.

With `NC1(C(=O)O)C(CCCc2ccccc2)CC2C(C(=O)O)C21` (stereo not drawn) [Example 1, Mixture of 1SR,2SR,3RS,5RS,6SR-2-amino-3-(3-phenylpropyl)bicyclo[3.1.0]-hexane-2,6-dicarboxylic acid and 1SR, 2RS, 3RS, 5RS, 6SR-2-amino-3-(3-phenylpropyl)bicyclo[3.1.0]hexane-2,6-dicarboxylic acid] as the compound, how does the IC50 [3] read?
The IC50 was 320 nM.
